Experimental data taken from ChEMBL document CHEMBL1142432 (J Med Chem, 2008).
pKi: −log10 of the molar value. Converted amounts (≈) assume the structure as drawn.

What was measured:
[1] = Oral bioavailability in dog at 25 mg/kg; format: ADME, organism-based, Canis lupus familiaris; settings: in vivo
Rattus norvegicus [2] = test: Toxicity in rat at 25 mg/kg for 30 days; format: organism-based; set-up: dose 25 mg/kg; settings: in vivo, 720 h
Canis familiaris [3] = test: Toxicity in dog at 25 mg/kg for 30 days; format: organism-based, Canis lupus familiaris; set-up: dose 25 mg/kg; settings: in vivo, 720 h
Rattus norvegicus [4] = test: Toxicity in rat at 50 mg/kg, po for 30 days; format: organism-based; set-up: dose 50 mg/kg, route oral; settings: in vivo, 720 h
Canis familiaris [5] = test: Toxicity in dog at 40 mg/kg, po for 30 days; format: organism-based, Canis lupus familiaris; set-up: dose 40 mg/kg, route oral; settings: in vivo, 720 h
[6] = Elimination half life in human; format: ADME, organism-based; settings: in vivo
[7] = Total clearance in human; format: ADME, organism-based; settings: in vivo
[8] = Renal clearance in human; format: ADME, organism-based, Kidney; settings: in vivo, read-out: CL_renal
Homo sapiens = species: Homo sapiens; test: Nonrenal clearance in human; format: ADME, organism-based; settings: in vivo
[9] = Drug level in human urine; format: ADME, tissue-based; settings: read-out: Drug uptake
[10] = Drug level in human lung epithelial lining fluid at 600 mg, po bid after 4 hrs; format: ADME, organism-based; settings: read-out: Drug uptake
[11] = target: T1, Amine oxidase [flavin-containing] A (Homo sapiens, UniProt P21397); test: Inhibition of monoamine oxidase A
T1 sequence (P21397 whole entry): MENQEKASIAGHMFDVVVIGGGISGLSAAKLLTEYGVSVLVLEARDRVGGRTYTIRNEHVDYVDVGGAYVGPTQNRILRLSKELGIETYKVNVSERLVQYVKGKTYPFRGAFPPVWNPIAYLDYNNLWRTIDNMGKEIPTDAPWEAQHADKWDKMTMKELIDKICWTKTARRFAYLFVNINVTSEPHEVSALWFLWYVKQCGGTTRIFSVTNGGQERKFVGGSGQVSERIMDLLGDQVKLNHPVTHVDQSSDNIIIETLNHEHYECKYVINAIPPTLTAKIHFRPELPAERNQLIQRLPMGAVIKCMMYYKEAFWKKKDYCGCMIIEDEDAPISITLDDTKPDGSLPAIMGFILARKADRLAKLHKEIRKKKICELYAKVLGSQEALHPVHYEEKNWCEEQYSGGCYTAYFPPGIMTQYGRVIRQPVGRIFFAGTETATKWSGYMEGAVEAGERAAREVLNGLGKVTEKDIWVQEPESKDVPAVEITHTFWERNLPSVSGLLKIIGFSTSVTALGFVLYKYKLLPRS

Plasma = test: Plasma concentration in human at 600 mg, po bid; format: ADME, organism-based; settings: in vivo
Staphylococcus aureus = test: Protection against methicillin-resistant Staphylococcus aureus infection in pneumonia patient; format: functional
Enterococcus = test: Protection against vancomycin-resistant Enterococcus infection in pneumonia patient; format: functional
Rattus norvegicus [12] = test: Toxicity in rat at 20 mg/kg for 30 days; format: organism-based; set-up: dose 20 mg/kg; settings: in vivo, 720 h
Canis familiaris [13] = test: Toxicity in dog at 20 mg/kg for 30 days; format: organism-based, Canis lupus familiaris; set-up: dose 20 mg/kg; settings: in vivo, 720 h
[14] = test system: Mycobacterium tuberculosis; test: Antimycobacterial activity against Mycobacterium tuberculosis H37Rv; format: functional
[15] = Aqueous solubility of the compound; format: physicochemical

Q: With `CC(=O)NC[C@H]1CN(c2ccc(N3CCN(C(=O)CO)CC3)c(F)c2)C(=O)O1` [EPEREZOLID] as the molecule, how does the bioavailability [1] read?
A: 100%

Q: What about the Activity (Rattus norvegicus [2]) of the same molecule?
A: Non-toxic

Q: And the Activity (Canis familiaris [3])?
A: Non-toxic

Q: For `CC(=O)NC[C@H]1CN(c2ccc(N3CCOCC3)c(F)c2)C(=O)O1` [LINEZOLID], which Activity (Rattus norvegicus [4]) is on record?
A: Non-toxic

Q: And the Activity (Canis familiaris [5])?
A: Non-toxic

Q: And the half-life [6]?
A: 5 h

Q: And the clearance [7]?
A: 100 mL/min

Q: And the CL renal [8]?
A: 30 mL/min

Q: And the CL (Homo sapiens)?
A: 70 mL/min

Q: What about the dose excreted [9] of the same molecule?
A: 20%

Q: And the concentration at 4 h [10]?
A: 64.3 µg/mL

Q: And the pKi [11]?
A: 4.26

Q: And the Cp (Plasma)?
A: 7.3 µg/mL

Q: What about the Efficacy (Staphylococcus aureus) of the same molecule?
A: 77%

Q: And the Efficacy (Enterococcus)?
A: 88%

Q: What about the Activity (Rattus norvegicus [12]) of the same molecule?
A: Non-toxic

Q: And the Activity (Canis familiaris [13])?
A: Non-toxic

Q: With `NNC(=O)c1ccncc1` [ISONIAZID] as the molecule, how does the MIC [14] read?
A: 0.2 µg/mL (≈ 1.46 µM)

Q: Which Activity (Staphylococcus aureus) does the source give for `CN[C@H](CC(C)C)C(=O)N[C@H]1C(=O)N[C@@H](CC(N)=O)C(=O)N[C@H]2C(=O)N[C@H]3C(=O)N[C@H](C(=O)N[C@H](C(=O)O)c4cc(O)cc(O)c4-c4cc3ccc4O)[C@H](O)c3ccc(c(Cl)c3)Oc3cc2cc(c3O[C@@H]2O[C@H](CO)[C@@H](O)[C@H](O)[C@H]2O[C@H]2C[C@](C)(N)[C@H](O)[C@H](C)O2)Oc2ccc(cc2Cl)[C@H]1O` [VANCOMYCIN] here?
A: 74%

Q: With `CC(=O)NC[C@H]1CN(c2ccc(N3CCSCC3)c(F)c2)C(=O)O1` [SUTEZOLID] as the molecule, how does the MIC [14] read?
A: ≤ 0.125 µg/mL

Q: And the solubility [15]?
A: 200 µg/mL (≈ 566 µM)
